Our source for the IC50 values is article PMC8774285, “In Silico, In Vitro and In Vivo Analysis of Tanshinone IIA and Cryptotanshinone from Salvia miltiorrhiza as Modulators of Cyclooxygenase-2/mPGES-1/Endothelial Prostaglandin EP3 Pathway” (Biomolecules, 2022).

Assay type in all cases: biochemical
Test [1] concerns the target T1, 5-lipoxygenase (5-LO) (Homo sapiens, UniProt P09917).
T1 construct: gene ALOX5; recombinant, expressed in E. coli BL21 (DE3) with pT3-5-LO, purified on ATP-agarose
T1 sequence (P09917 1-674): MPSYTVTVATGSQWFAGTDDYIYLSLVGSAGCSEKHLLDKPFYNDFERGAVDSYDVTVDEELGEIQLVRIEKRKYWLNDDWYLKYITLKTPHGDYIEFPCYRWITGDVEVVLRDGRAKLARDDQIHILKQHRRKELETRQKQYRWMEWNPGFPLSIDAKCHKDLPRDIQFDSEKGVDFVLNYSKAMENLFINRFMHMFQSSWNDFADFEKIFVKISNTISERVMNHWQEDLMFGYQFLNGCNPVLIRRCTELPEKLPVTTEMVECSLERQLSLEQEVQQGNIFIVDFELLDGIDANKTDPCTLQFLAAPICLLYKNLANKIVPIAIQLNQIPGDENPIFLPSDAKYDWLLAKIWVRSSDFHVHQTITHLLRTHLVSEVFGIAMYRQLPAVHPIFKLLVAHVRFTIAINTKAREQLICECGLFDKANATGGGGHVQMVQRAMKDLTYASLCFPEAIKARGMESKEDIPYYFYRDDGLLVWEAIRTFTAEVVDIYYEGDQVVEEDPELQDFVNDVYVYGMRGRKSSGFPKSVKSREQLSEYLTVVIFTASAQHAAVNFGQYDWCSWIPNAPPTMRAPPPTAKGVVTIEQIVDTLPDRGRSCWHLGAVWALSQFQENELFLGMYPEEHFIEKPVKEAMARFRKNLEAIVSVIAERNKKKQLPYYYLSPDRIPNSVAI
Description: isolated 5-LO activity assay ([…] AA, products by RP-HPLC).

Test [2] addresses T2, cyclooxygenase-1 (COX-1) (Ovis aries, UniProt P05979).
T2 construct: gene PTGS1; purified ovine COX-1
T2 sequence (P05979 25-600): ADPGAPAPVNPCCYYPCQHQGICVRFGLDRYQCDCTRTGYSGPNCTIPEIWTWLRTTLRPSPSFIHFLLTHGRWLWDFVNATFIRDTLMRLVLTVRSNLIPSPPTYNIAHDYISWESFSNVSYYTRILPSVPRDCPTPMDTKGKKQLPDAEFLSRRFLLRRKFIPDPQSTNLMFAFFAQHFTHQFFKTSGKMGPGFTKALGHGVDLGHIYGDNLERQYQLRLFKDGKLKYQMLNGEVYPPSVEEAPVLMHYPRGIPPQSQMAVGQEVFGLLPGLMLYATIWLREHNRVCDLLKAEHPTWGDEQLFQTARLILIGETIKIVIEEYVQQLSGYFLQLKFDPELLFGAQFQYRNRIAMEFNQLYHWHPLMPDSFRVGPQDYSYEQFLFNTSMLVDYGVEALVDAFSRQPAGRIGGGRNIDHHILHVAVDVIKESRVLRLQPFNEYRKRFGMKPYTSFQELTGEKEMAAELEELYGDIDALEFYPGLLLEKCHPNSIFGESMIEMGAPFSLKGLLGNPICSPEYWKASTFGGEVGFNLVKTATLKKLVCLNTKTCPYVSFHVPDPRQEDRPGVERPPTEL
Description: isolated COX-1 activity assay ([…] AA, 12-HHT formation); […] residual activity at […].

Test [3] deals with T3, cyclooxygenase-2 (COX-2) (Homo sapiens, UniProt P35354).
T3 construct: gene PTGS2; recombinant human COX-2
T3 sequence (P35354 18-604): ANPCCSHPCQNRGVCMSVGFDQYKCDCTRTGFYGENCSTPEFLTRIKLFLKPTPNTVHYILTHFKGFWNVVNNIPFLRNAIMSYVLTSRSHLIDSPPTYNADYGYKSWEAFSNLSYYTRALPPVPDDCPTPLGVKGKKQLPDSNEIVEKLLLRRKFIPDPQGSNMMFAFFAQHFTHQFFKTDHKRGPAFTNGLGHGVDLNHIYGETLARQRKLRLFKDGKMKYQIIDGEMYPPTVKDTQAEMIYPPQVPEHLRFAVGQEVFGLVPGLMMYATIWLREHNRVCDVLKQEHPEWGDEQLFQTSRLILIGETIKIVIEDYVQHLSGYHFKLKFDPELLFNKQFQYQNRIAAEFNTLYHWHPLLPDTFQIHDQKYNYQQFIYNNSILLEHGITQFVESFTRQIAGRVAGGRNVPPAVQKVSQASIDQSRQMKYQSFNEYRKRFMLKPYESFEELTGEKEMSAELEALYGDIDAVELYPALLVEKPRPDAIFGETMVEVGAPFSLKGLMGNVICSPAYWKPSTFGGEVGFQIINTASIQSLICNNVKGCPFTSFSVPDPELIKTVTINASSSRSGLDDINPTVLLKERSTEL
Briefly: isolated COX-2 activity assay ([…] AA, 12-HHT formation); […] residual activity at […].

Where only a bound is given, the exact number is not on record here.

For orientation: IC50 means the midpoint of a concentration-inhibition curve. The low end stands for inhibition by little substance, the high end for a need for much substance. As to `C[C@H]1COC2=C1C(=O)C(=O)c1c2ccc2c1CCCC2(C)C` [CRY, cryptotanshinone], the 50% inhibitory concentration (IC50) in test [1] was 7.1 µM; in test [2], over 30 µM; in test [3], over 30 µM.
